Laboratory results from patent US6329155A, “Methods of identifying agents which regulate release of amyloid precursor protein” (Massachusetts Institute of Technology, priority 1994, dated 2001).
Each block holds one compound with its values, some of them ahead of it. Ends that are not written are not given here.

Assays:
[1] = tested on: mAChR-transfected 293 cell lines; assay: APP processing in mAChR-transfected 293 cell lines, subtype not stated (Western blot); type: cell-based, human
[2] = tested on: serotonin receptor subtype 5HT2; assay: APP derivative release by 3T3 fibroblasts transfected with serotonin receptor subtype 5HT2; type: cell-based; conditions: 3T3 fibroblasts transfected with 5HT2; serum-deprived 24 hours
[3] = tested on: human m2 mAChR; assay: APP release by human 293 cells transfected with m2 mAChR; type: cell-based; conditions: carbachol
[4] = tested on: human m4 mAChR; assay: APP release by human 293 cells transfected with m4 mAChR; type: cell-based; conditions: carbachol
[5] = tested on: wild-type 293 cells; assay: APP release by wild-type (nontransfected) human 293 cells; type: cell-based; conditions: wild-type cell lines; carbachol
[6] = target: T1, human m3 mAChR (Homo sapiens, UniProt P20309); type: cell-based
T1 construct: expressed in transfected cells; m3 200,000 receptors per cell
T1 sequence (P20309 whole entry): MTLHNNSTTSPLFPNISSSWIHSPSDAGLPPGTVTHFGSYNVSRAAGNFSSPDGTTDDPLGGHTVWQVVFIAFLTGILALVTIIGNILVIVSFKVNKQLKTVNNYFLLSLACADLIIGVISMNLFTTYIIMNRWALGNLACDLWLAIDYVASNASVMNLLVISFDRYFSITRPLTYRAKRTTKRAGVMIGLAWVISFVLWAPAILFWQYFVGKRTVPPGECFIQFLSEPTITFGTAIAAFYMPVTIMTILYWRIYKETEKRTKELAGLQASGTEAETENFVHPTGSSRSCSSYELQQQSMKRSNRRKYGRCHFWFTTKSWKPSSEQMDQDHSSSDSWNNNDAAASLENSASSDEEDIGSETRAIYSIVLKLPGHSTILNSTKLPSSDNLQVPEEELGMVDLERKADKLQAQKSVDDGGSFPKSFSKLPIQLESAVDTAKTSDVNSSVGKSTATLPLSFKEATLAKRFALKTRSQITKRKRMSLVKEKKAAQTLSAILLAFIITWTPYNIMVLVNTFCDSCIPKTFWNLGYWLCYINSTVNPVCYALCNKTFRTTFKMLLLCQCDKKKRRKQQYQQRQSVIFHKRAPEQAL

[7] = target: T2, PC-12 bradykinin receptors (Rattus norvegicus, UniProt P25023); assay: Secretion of soluble APP (APPs) by PC-12 cells via bradykinin receptors; type: cell-based
T2 construct: functional APPs secretion
T2 sequence (P25023 1-396): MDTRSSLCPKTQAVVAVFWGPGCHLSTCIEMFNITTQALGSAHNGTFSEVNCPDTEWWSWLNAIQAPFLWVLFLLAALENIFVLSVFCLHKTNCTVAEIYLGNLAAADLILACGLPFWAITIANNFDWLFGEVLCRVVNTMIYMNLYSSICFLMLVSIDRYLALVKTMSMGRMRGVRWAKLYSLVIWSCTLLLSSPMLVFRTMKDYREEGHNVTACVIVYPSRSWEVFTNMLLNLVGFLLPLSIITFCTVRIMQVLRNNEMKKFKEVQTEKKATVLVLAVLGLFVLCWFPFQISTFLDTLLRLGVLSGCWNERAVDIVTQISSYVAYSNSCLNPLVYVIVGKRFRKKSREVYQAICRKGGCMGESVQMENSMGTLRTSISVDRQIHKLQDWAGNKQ
Protocol: PC-12 cell lines were obtained from American Type Culture Collection (CRL 1721) and grown in Dulbecco's modified Eagle's medium supplemented with 10% horse serum and 2.5% fetal bovine serum at 37° C. under a 5% carbon dioxide atmosphere. Cells were plated on collagen-coated culture dishes. For differentiation into the neuronal phenotype, 50 ng/ml nerve growth factor was added 24 hours after plating and differentiation was verified after three days by neurite outgrowth. Experiments were conducted with subconfluent monolayers approximately five days after plating.
Media were removed from culture dishes; cells were washed twice with serum-free N2 medium and experiments were done at 37° C. on a hot plate in serum-free N2 medium. Media were removed after incubation periods, desalted on sephadex G-25 columns with water as eluent, lyophilized and resuspended in 100 μl sample butter, and boiled for five minutes. Experiments were carried out in triplicate culture dishes and were repeated three to six times.
Cells were treated with 10 μM bradykinin or with vehicle (control) and secretion of APP was assessed over time, using Western blot and densitometry. […] Membranes were blocked, and probed with monoclonal antibody 22C11. Membranes were washed, and incubated with anti-mouse IgG conjugated to horseradish peroxidase. Bands were visualized with enhanced chemiluminescence using pre-flashed (linear) x-ray films. For densitometric analysis, bands were scanned with a Pharmacia LKB UltroScan XL laser densitometer set at 40 μm vertical interval size and […] horizontal slit width. Data were normalized to vehicle-treated controls which were always run within the same blots.

[8] = target: T3, human m1 mAChR (Homo sapiens, UniProt P11229)
T3 sequence (P11229 1-460): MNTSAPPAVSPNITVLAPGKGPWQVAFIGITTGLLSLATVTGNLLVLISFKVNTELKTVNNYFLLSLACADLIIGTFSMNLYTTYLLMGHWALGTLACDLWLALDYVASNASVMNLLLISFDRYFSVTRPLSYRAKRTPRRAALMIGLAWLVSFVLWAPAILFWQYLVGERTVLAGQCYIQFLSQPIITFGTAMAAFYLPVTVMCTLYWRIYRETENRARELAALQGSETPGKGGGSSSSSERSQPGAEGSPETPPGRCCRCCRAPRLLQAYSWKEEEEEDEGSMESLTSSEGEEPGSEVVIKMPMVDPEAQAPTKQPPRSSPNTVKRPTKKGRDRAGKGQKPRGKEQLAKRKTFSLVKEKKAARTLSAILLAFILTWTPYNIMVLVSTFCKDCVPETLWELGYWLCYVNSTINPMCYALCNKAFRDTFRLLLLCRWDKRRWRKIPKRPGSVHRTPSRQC

[9] = stimulation with carbachol, Western blot

Compound: CNc1ccc2oc(C[C@H]3O[C@@]4(CC[C@H]3C)O[C@H]([C@H](C)C(=O)c3ccc[nH]3)[C@H](C)C[C@H]4C)nc2c1C(=O)O [A23187]
stimulation of basal APP release by calcium ionophore alone ([1]; 10 μm ionophore, cell line not stated in text (FIG. 1B)): failure

release of N-terminal non-amyloidogenic APP derivatives [2]: increases release
Compound: NCCc1c[nH]c2ccc(O)cc12 [Serotonin]

Compound: C[N+](C)(C)CCOC(N)=O [carbachol]
basal release of APP fragments, effect of agonist [3]: not stimulated | basal release of APP fragments, effect of agonist [4]: not stimulated | basal release of APP fragments, effect of agonist [5]: not stimulated | 128 kD APP derivative secreted into the culture medium [1, 9]: increase | abundance of cell-associated 115 kD APP [1, 9]: remained unaffected | abundance of cell-associated 141 kD APP [1, 9]: decreased

Compound: CN[C@@H]1C[C@H]2O[C@@](C)([C@@H]1OC)n1c3ccccc3c3c4c(c5c6ccccc6n2c5c31)C(=O)NC4 [staurosporine]
effect on receptor-activated (carbachol-induced) APP release [6]: inhibited | effect on bradykinin-induced APPS secretion ([7]; PC-12 cells, added with bradykinin): inhibited | effect on receptor-activated (carbachol-induced) APP release [8]: inhibited

Compound: RPPGFSPFR [bradykinin]
secretion of soluble N-terminal APP derivatives (APPS) into the medium ([7]; NGF-differentiated PC-12 cells, 10 μM bradykinin vs vehicle): increases | APPs secretion in undifferentiated PC-12 cells ([7]; PC-12 cells without nerve growth factor): stimulates
